“Also recorded” adds a separate entry of the source. Where no end group is shown, it is not given here.
What was measured:
[1] = molecular target: T1, Angiotensin converting enzyme (ACE) (Homo sapiens, UniProt P12821); assay: ACE inhibitory (ACEI) activity, HHL substrate, HPLC detection of hippuric acid; assay type: biochemical; conditions: synthetic peptides; HHL 5 mM, ACE 0.025 U/mL, 37°C 60 min, HPLC 228 nm
T1 construct: purchased Sigma–Aldrich (Shanghai) Trading Co., Ltd
Experimental: Eighty microlitres of HHL solution (5 mM) and 30 μL of sample mixture were incubated at 37°C for 5 min. Then, 40 μL of ACE solution (0.025 U/mL) was added to the mixture, followed by incubation at 37°C for 60 min. The reaction was terminated by adding 120 μL of 1 M HCl. After the addition of 700 μL of pure water, the mixture was filtered through a 0.22 μm membrane ([25]). The experiment included four groups: a control group (pure water), a negative control group (blank digestion solution), a positive control group (protein mixture), and a sample group (protein digestion solution). In the control group, HCl was added immediately after ACE.
Chromatograms were recorded via an Agilent instrument (Agilent, California, USA). Column: CAPCELL CORE AQ C18, 4.6 × 150 mm, 5 μm (Shiseido, Tokyo, Japan). Column temperature: 30°C. Flow rate: 1 mL/min. The injection volume was 100 μL. Mobile phase: 0.1% trifluoroacetic acid aqueous solution (A) and pure acetonitrile (B). Detection wavelength: 228 nm. Elution gradient: 0–10 min, 80% A/20% B. The calculation method was as follows:
Inhibitionrate(%)=[PA]c-[PA]s/[PA]c-[PA]b×100%
where [PA]c, [PA]s, and [PA]b represented the peak area of HA at 228 nm of the control group, experimental group, and blank group, respectively.

[2] = In vitro simulated gastrointestinal digestion (pepsin, trypsin): digestibility / digestion stability; assay type: in vitro ADME; conditions: stability under digestion conditions in vitro; pepsin pH 2.0 37°C 2 h, then trypsin pH 8.0 37°C 2 h as described for the hydrolysate; mean ± spread
Experimental: In vitro digestion simulation was performed based on the method of Hao et al. ([24]). Broccoli protein suspension (5%, w/v) was hydrolyzed with papain (1%, E/S ratio) for 6 h (pH 7.0, 55°C). After hydrolysis, inactivated at 100°C for 10 min and cooled to 25°C. Based on the method of Hao et al. ([24]), the simulated digestion of broccoli papain hydrolysate was conducted. In short, 0.1 g pepsin (pH = 2.0) was mixed with the hydrolysate and placed at 37°C for 2 h. Then 0.2 g trypsin (pH = 8.0) was added and incubated at 37°C for 2 h. After enzymatic hydrolysis, the enzyme was inactivated at 95°C for 10 min, cooled to 25°C, and the supernatant was collected. Subsequently, freeze-dried broccoli crude peptide was applied to the determination of ACEI activity.
The crude protein hydrolysis of broccoli was analyzed by high performance liquid chromatography (Agilent 1260, California, USA). The Column was XBridge Peptides BEH C18 Column 130A, 4.6 × 250 mm, 5 μm (Waters, Massachusetts, USA). Column temperature: 37°C. Flow rate: 1 mL/min. Sample size: 100 μL. Mobile phase: 0.1% trifluoroacetic acid aqueous solution (phase A) and pure acetonitrile (phase B). Detection wavelengths: 214 and 280 nm. Elution gradient: 0–5 min, 100%A/0%B; 5–25 min, 60%A/40%B; 25–26 min, 20%A/80%B; 26–31 min, 20%A/80%B; 31–32 min, 100%A/0%B; 32–37 min, 100%A/0%B.

VSMCs [3] = assay: Western blot of protein expression in VSMCs (Ang II-induced or high glucose); assay type: cell-based, Sprague–Dawley rats; conditions: for ACE expression / expression of PCNA, MMP2, Bcl2 and Bax: VSMCs in high glucose (HG) + peptide
Experimental: (§1) Thoracic aortas from male Sprague–Dawley rats (250–300 g) were dispersed in HBSS solution, which contained 1 mg/mL collagenase II (146 U/mg, Worthington Biochemical Corp., Freehold, NJ) and 0.5 mg/mL elastase I (32 U/mg, Worthington Biochemical Corp., Freehold, NJ). The mixture was digested for 90 min to obtain the appropriate VSMCs. The obtained VSMCs were subsequently cultured in DMEM supplemented with 10% FBS, 2 mmol/L glutamine, and 1 g/L D-glucose at 37°C in a humidified atmosphere of 5% CO2. The purity of the VSMCs was evaluated by the smooth muscle cell-specific marker SM22α (>97% for the stained cells). All the VSMCs used for the experiments were between the 3rd and 8th passages.
Protein was extracted with RIPA buffer. Equal amounts of protein were separated via 8–10% SDS–PAGE (ACE, Changzhou, China) and then transferred to 0.22 μm PVDF membranes (Millipore, Bedford, MA, USA). The membranes were blocked with 5% skim milk and incubated overnight with the appropriate primary antibodies. HRP-conjugated secondary antibodies were then applied for binding and visualization through Western blot luminol reagent. Densitometry quantification was performed with ImageJ-V1.8.0.

VSMCs [4] = assay: CCK-8 cell viability of VSMCs in high glucose; assay type: cell-based, Sprague–Dawley rats; conditions: high glucose (HG); for VSMC proliferation / viability: peptides 0.0313-0.5 mg/mL
Experimental: as §1
The cells (4 × 10^3 cells/well) were seeded into 96-well plates and cultured overnight. The cells were subjected to serum deprivation for 24 h. Then, the culture mixture was removed, and 100 μL of free FBS culture mixture was added to the above culture mixture. Ten microliters of CCK-8 solution was added to each well. The plates were read with a BioTek Epoch 2 Microplate Spectrophotometer (Agilent Technologies, California, USA). The experiment was organized into seven groups, which included a normal group, a high glucose group, and peptide segments: HLEVR, LTEVR, LEHGF, HLVNK, and LLDGR. These segments were tested at concentrations of 0.0313, 0.0625, 0.125, 0.25, and 0.5 mg/mL.

Ang II = Ang II level in VSMCs cultured in high glucose (ELISA); assay type: cell-based, Sprague–Dawley rats; conditions: high glucose (HG) + peptide
Experimental: as §1
The cells (2 × 10^4 cells per well) were first seeded into 24-well plates overnight. The supernatants were collected to measure the expression levels of Ang II via angiotensin II ELISA kits (ER1637, FineTest, Wuhan, China) according to the manufacturer's protocol. The absorbance of each well at 450 nm was determined via a multimode plate reader (BioTek Epoch2, Santa Clara, US).

Caco-2 cells = assay: Caco-2 cell monolayer transport model (absorption simulation); assay type: in vitro ADME; conditions: Caco-2 monolayer integrity marker, 12-well inserts, TEER 468.09 ± 37.54 Ω/cm^2
Experimental: Caco-2 cells were obtained from the Cell Bank of the Chinese Academy of Sciences. The cells were cultured in Dulbecco's modified Eagle's medium (DMEM) supplemented with 20% FBS and 1% penicillin/streptomycin (P/S) at 37°C and 5% CO2 in a humidified incubator.
Caco-2 cells were seeded in each chamber of a 12-well plate, which was equipped with cell culture inserts ([26]). The transepithelial electrical resistance (TEER) across the monolayer was measured every 2 days via a cell resistance meter (RE1600, Beijing Jegon Instrumentation Co., Ltd.). The integrity of the cell monolayer was assessed with fluorescein isothiocyanate (FITC). TEER values > 350 Ω/cm^2 were considered to indicate successful construction and validation of the Caco-2 cell transport model. The FITC permeability was < 5 × 10^−[…], indicating the integrity of the cell monolayer.
Broccoli protease hydrolysate was added to the apical (AP) side. After 120 min, the media from both the AP and basolateral (BL) sides were collected for subsequent analysis. The wells without cells or samples served as the control group, whereas the wells without samples served as the blank group.

T1 sequence (P12821 30-1306, species assumed): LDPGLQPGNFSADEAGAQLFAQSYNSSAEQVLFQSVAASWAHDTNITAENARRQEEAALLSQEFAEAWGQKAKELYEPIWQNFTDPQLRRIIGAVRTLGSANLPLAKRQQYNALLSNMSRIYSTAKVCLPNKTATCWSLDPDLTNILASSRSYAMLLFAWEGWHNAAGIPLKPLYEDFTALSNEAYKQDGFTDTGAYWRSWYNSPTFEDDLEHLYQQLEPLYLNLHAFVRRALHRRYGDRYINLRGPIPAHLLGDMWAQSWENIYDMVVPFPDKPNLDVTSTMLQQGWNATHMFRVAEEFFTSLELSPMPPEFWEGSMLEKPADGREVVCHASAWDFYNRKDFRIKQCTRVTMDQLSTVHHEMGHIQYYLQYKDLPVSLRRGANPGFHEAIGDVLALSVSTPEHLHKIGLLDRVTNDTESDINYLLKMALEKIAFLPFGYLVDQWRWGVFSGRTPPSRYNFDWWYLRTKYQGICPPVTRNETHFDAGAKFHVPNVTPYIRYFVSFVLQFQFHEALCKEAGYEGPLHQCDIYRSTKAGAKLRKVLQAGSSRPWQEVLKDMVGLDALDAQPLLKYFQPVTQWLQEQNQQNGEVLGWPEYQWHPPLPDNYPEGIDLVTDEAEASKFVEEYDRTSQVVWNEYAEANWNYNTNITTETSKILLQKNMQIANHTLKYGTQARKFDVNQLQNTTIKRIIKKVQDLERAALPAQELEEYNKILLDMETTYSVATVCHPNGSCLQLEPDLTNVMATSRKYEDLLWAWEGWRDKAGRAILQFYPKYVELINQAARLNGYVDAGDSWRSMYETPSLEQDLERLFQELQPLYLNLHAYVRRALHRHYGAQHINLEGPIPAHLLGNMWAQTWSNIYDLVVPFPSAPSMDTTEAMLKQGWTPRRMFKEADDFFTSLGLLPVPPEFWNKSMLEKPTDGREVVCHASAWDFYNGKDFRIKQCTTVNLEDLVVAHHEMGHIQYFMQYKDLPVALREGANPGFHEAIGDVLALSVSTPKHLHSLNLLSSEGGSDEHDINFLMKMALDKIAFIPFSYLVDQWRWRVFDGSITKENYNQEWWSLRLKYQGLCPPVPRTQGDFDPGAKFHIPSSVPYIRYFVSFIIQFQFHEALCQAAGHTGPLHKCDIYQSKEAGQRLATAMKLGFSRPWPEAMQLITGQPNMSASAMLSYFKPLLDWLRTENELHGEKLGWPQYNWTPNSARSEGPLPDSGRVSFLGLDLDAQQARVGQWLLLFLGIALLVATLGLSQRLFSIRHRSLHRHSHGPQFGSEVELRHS

Substance: HLEVR [HLEVR]
- IC50 [1]: 3.19 ± 0.23 mM
- Digestion stability (%) [2]: 94.27 ± 2.64%

Substance: HLVNK [HLVNK]
- ACE expression (VSMCs [3]): modulated ACE expression
- expression of PCNA, MMP2, Bcl2 and Bax (VSMCs [3]): significantly restored the expression of these proteins
- IC50 [1]: 0.06 ± 0.01 mM
- Digestion stability (%) [2]: 95.78 ± 3.73%
- VSMC proliferation / viability (VSMCs [4]): effectively reduce VSMC viability
- Ang II levels in VSMCs (Ang II): significantly inhibit intracellular Ang II levels
- Ang II levels in VSMCs (Ang II; listed as HLLVNK): significantly reduced Ang II levels

Substance: LEHGF [LEHGF]
- IC50 [1]: 0.64 ± 0.02 mM
- Digestion stability (%) [2]: 97.85 ± 6.31%

Substance: LLDGR [LLDGR]
- IC50 [1]: 2.81 ± 0.12 mM

Substance: LTEVR [LTEVR]
- ACE expression (VSMCs [3]): modulated ACE expression
- expression of PCNA, MMP2, Bcl2 and Bax (VSMCs [3]): significantly restored the expression of these proteins
- IC50 [1]: 17.1 ± 1.37 mM
- Digestion stability (%) [2]: 98.82 ± 3.92%
- cell viability of VSMCs (VSMCs [4]; peptide 0.5 mg/mL): not significant
- VSMC proliferation / viability (VSMCs [4]): effectively reduce VSMC viability
- Ang II levels in VSMCs (Ang II): significantly reduced Ang II levels; also recorded: significantly inhibit intracellular Ang II levels

Substance: angiotensin II (DRVYIHPF; Angiotensin-2; UniProt P01019 25-32, looked up) [Ang II, angiotensin II, used to induce VSMC dysfunction]
- downregulation of ACE2 expression (VSMCs [3]; VSMCs treated with Ang II): 15.60 ± 0.028%
- upregulation of ACE expression (VSMCs [3]; VSMCs treated with Ang II): 136.50 ± 0.017%
- upregulation of AT1R expression (VSMCs [3]; VSMCs treated with Ang II): 27.31 ± 0.020%
- upregulation of BCL2 expression (VSMCs [3]; VSMCs treated with Ang II): 40.26 ± 0.051%
- upregulation of ERK1/2/Total ERK (VSMCs [3]; VSMCs treated with Ang II): 128.17 ± 0.028%
- upregulation of MMP2 expression (VSMCs [3]; VSMCs treated with Ang II): 14.97 ± 0.044%
- upregulation of PCNA expression (VSMCs [3]; VSMCs treated with Ang II): 49.56 ± 0.01%
- upregulation of pp38/Total p38 (VSMCs [3]; VSMCs treated with Ang II): 14.58 ± 0.041%

Substance: lucifer yellow
- apparent permeability coefficient (Papp) (Caco-2 cells): 2.87 ± 0.53 × 10^−7 cm^2/s
